# Tested on: PRRSV-RESP strain
# Assay: In vitro infectivity of PRRSV, plaque titration on Marc-145 cells
# Type: cell-based
# Settings: for In Vitro Infectivity: 60 minutes at 37° C.
# Method: The PRRSV are titrated for in vitro infectivity using the following procedure. Using the cell culture and transfer procedures above, Marc-145 cells are suspended in DMEM containing 10% FBS at a final density of 1.5×10^5 cell/mL. Two mL of the Marc-145 cell suspension are added to each well of a 6-well plate, and the plates are incubated overnight at 37° C. with 5% CO2. Virus samples are thawed in a 37° C. water bath, followed by centrifugation at 500×g for 10 minutes at 4° C. A 1/10 dilution series of viruses is prepared and stored at 4° C. until use, using EMEM as the dilution buffer.
# When the Marc-145 cells are at least 90% confluent, the medium is removed, and 0.5 mL dilution buffer and 0.5 mL of the virus dilution are added into each well. For the negative control, 1.0 mL dilution buffer is used. The plates are gently shaken immediately after each dilution is added. Plates are incubated for 60-90 minutes at 37° C. in 5% CO2 and rocked every 15 minutes. Each well of each 6-well plate is then overlaid with 3 mL of a 1:4 mixture of 2.5% low melting point agarose in PBS solution and dilution buffer at 37° C. The plates are incubated at room temperature for 15 minutes to allow the overlay mixture to solidify, and then the plates are incubated at 37° C. with 5% CO2 for 96 hours.
# Plaques are visualized using the following procedure. After the plaques are fully developed (96 hours post-infection), 1 mL 4% paraformaldehyde is added, and the plates are incubated at room temperature for 1 hour. Solubilized agarose is discarded, and 0.5 mL of 0.5% crystal violet is added to each well. The number of plaques is counted after 15 minutes of incubation with the crystal violet and converted to a titer based on the dilution factors.
# Solvent and mock treatments are conducted according to the following procedure. One hundred μL aliquots of the concentrated PRRSV stock at about 1×10^9 PFU/mL are diluted into 900 μL PBS in Eppendorf tubes to achieve a final titer of 1.0-5.0×10^8 PFU/mL. […] Eppendorf tubes are then capped and sealed with parafilm. All the samples are secured in an SHZ-82 constant-temperature orbital air-bath shaker (Changzhou Guohua Appliance Co., China) preheated to 37° C. The solvent- and mock-treated samples are spun at an orbital rotation speed of 220 rpm at 37° C. for the desired time. The respective samples are spun in a micro-centrifuge for 1 minute, and the supernatants containing IFV are transferred to ultracentrifuge tubes. Tubes are centrifuged at 100,000×g (OPTIMA™ L-100XP centrifuge; Beckman Coulter, Inc., Indianapolis Ind.) for 30 minutes to pellet the PRRSV, and the supernatants are discarded. The PRRSV pellets are resuspended in 200 μL PBS and stored at −80° C. until further analyses.
# The protein content of the delipidated and mock-treated PRRSV is determined using a BCA assay (PIERCE™ BCA Protein Assay Kit) according to the manufacturer's instructions. The cholesterol content also is determined using a cholesterol assay (Amplex® Red Cholesterol Assay Kit, Life Technologies, Grand Island, N.Y.) performed according to manufacturer's instruction. In vitro infectivity is measured using the same procedures as set forth above.
# After ultracentrifugation, the mock-treated and delipidated samples are tested for in vitro infectivity in the Marc-145 cells, and protein and cholesterol contents are determined, using the procedures set forth above.
substance,measurement,setting,value
methyl β-cyclodextrin [MBCD],titer of delipidated PRRSV sample,100 mM MBCD for 90 minutes,under the limit of detection
same,In Vitro Infectivity,"PRRSV-RESP, 5 mM MBCD",1.4 × 10^7 PFU/mL
same,In Vitro Infectivity,"PRRSV-RESP, 10 mM MBCD",7.0 × 10^6 PFU/mL
same,In Vitro Infectivity,"PRRSV-RESP, 20 mM MBCD",2.8 × 10^6 PFU/mL
same,In Vitro Infectivity,"PRRSV-RESP, 30 mM MBCD",1.2 × 10^5 PFU/mL
same,PRRSV infectivity reduced,"PRRSV-RESP, 50 mM MBCD, 60 min at 37° C.",about 380 fold
same,In Vitro Infectivity,"PRRSV-RESP, 50 mM MBCD",4.2 × 10^4 PFU/mL

# — US10420831B2, “Inactivation of viruses by delipidation” (priority 2016, dated 2019)
